According to patent publication US20230085307A1, “PYRIDAZINONE COMPOUND AND HERBICIDE” (NISSAN CHEMICAL CORPORATION, priority 2019, published 2023):

What was measured:
[1] = system: windgrass; assay: Test Example 5: herbicidal effect by foliage application, plastic box (Table 20, symbol L); format: in vivo, windgrass (Apera spica-venti); details: foliage application
How it was run: (§1)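 Plants were sown into sterilized diluvial soil under about 1.5 cm cover and kept in a greenhouse at 25° C. to 30° C. Fourteen days on, foliage received an even spray of the diluted emulsion. Herbicidal or crop effect was judged three weeks afterwards.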

[2] = system: green foxtail; assay: Test Example 5: herbicidal effect by foliage application, plastic box (Table 20, symbol G); format: in vivo, green foxtail (Setaria viridis); details: foliage application
How it was run: as §1

[3] = system: barnyard grass; assay: Test Example 5: herbicidal effect by foliage application, plastic box (Table 20, symbol H); format: in vivo, barnyard grass (Echinochloa crus-galli); details: foliage application
How it was run: as §1

[4] = system: green foxtail; assay: Test Example 4: herbicidal effect by soil treatment (Table 19, symbol G); format: in vivo, green foxtail (Setaria viridis)
How it was run: (§2)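 In this soil treatment, the formulated compound reached the seeds only through the soil: seeds were buried about 1.5 cm deep in sterilized diluvial soil, then the diluted emulsion was sprayed over the surface. After three weeks at 25° C. to 30° C. in a greenhouse, effects were graded on criteria from an earlier test.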

[5] = system: lambsquarters; assay: Test Example 5: herbicidal effect by foliage application, plastic box (Table 20, symbol O); format: in vivo, lambsquarters (Chenopodium album); details: foliage application
How it was run: as §1

[6] = system: barnyard grass; assay: Test Example 3: herbicidal effect by foliage application, Wagner pot (Table 18, symbol H); format: in vivo, barnyard grass (Echinochloa crus-galli); details: 320 g/ha
How it was run: (§3)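 Plants were sown in alluvial soil held under 0.1–0.5 cm standing water and grown 14 days in a greenhouse at 25–30 °C. An emulsifiable formulation, water-diluted to the set dose, was then sprayed onto the foliage, and effects were scored three weeks later using previously defined criteria.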

[7] = system: blackgrass; assay: Test Example 4: herbicidal effect by soil treatment (Table 19, symbol J); format: in vivo, blackgrass (Alopecurus myosuroides)
How it was run: as §2

[8] = system: windgrass; assay: Test Example 4: herbicidal effect by soil treatment (Table 19, symbol L); format: in vivo, windgrass (Apera spica-venti)
How it was run: as §2

[9] = system: blackgrass; assay: Test Example 5: herbicidal effect by foliage application, plastic box (Table 20, symbol J); format: in vivo, blackgrass (Alopecurus myosuroides); details: foliage application
How it was run: as §1

[10] = system: chickweed; assay: Test Example 5: herbicidal effect by foliage application, plastic box (Table 20, symbol P); format: in vivo, common chickweed (Stellaria media); details: foliage application
How it was run: as §1

[11] = system: southern crabgrass; assay: Test Example 5: herbicidal effect by foliage application, plastic box (Table 20, symbol F); format: in vivo, southern crabgrass (Digitaria ciliaris); details: foliage application
How it was run: as §1

[12] = system: redroot pigweed; assay: Test Example 5: herbicidal effect by foliage application, plastic box (Table 20, symbol N); format: in vivo, redroot pigweed (Amaranthus retroflexus); details: foliage application
How it was run: as §1

[13] = system: wild oat; assay: Test Example 4: herbicidal effect by soil treatment (Table 19, symbol I); format: in vivo, wild oat (Avena fatua)
How it was run: as §2

[14] = system: velvetleaf; assay: Test Example 4: herbicidal effect by soil treatment (Table 19, symbol M); format: in vivo, velvetleaf (Abutilon theophrasti)
How it was run: as §2

[15] = system: velvetleaf; assay: Test Example 5: herbicidal effect by foliage application, plastic box (Table 20, symbol M); format: in vivo, velvetleaf (Abutilon theophrasti); details: foliage application
How it was run: as §1

[16] = system: barnyard grass; assay: Test Example 4: herbicidal effect by soil treatment (Table 19, symbol H); format: in vivo, barnyard grass (Echinochloa crus-galli)
How it was run: as §2

[17] = system: Italian ryegrass; assay: Test Example 4: herbicidal effect by soil treatment (Table 19, symbol K); format: in vivo, Italian ryegrass (Lolium multiflorum)
How it was run: as §2

[18] = system: southern crabgrass; assay: Test Example 4: herbicidal effect by soil treatment (Table 19, symbol F); format: in vivo, southern crabgrass (Digitaria ciliaris)
How it was run: as §2

[19] = system: persian speedwell; assay: Test Example 4: herbicidal effect by soil treatment (Table 19, symbol R); format: in vivo, Persian speedwell (Veronica persica)
How it was run: as §2

[20] = system: Italian ryegrass; assay: Test Example 5: herbicidal effect by foliage application, plastic box (Table 20, symbol K); format: in vivo, Italian ryegrass (Lolium multiflorum); details: foliage application
How it was run: as §1

[21] = system: rice flat sedge; assay: Test Example 3: herbicidal effect by foliage application, Wagner pot (Table 18, symbol E); format: in vivo, rice flat sedge (Cyperus iria); details: 320 g/ha
How it was run: as §3

[22] = system: chickweed; assay: Test Example 4: herbicidal effect by soil treatment (Table 19, symbol P); format: in vivo, common chickweed (Stellaria media)
How it was run: as §2

[23] = system: Chinese sprangletop; assay: Test Example 3: herbicidal effect by foliage application, Wagner pot (Table 18, symbol D); format: in vivo, chinese sprangletop (Leptochloa chinensis); details: 320 g/ha
How it was run: as §3

[24] = system: redroot pigweed; assay: Test Example 4: herbicidal effect by soil treatment (Table 19, symbol N); format: in vivo, redroot pigweed (Amaranthus retroflexus)
How it was run: as §2

[25] = system: persian speedwell; assay: Test Example 5: herbicidal effect by foliage application, plastic box (Table 20, symbol R); format: in vivo, Persian speedwell (Veronica persica); details: foliage application
How it was run: as §1

[26] = system: lambsquarters; assay: Test Example 4: herbicidal effect by soil treatment (Table 19, symbol O); format: in vivo, lambsquarters (Chenopodium album)
How it was run: as §2

[27] = system: wild oat; assay: Test Example 5: herbicidal effect by foliage application, plastic box (Table 20, symbol I); format: in vivo, wild oat (Avena fatua); details: foliage application
How it was run: as §1

[28] = AAH 320 g/ha, three weeks after application
[29] = 320 g/ha, evaluated three weeks after application

## CCCC(=O)Oc1c(OC)nn(C)c(=O)c1-c1c(-c2cc(Cl)ccc2OC)sc2ccccc12 [1-179]
[1]; [28]
  L: windgrass, herbicidal effect: 1 (Herbicidal rate of 5% or more and less than 20%)
[2]; [28]
  G: green foxtail, herbicidal effect: 3 (Herbicidal rate of 40% or more and less than 70%)
[3]; [28]
  H: barnyard grass, herbicidal effect: 3 (Herbicidal rate of 40% or more and less than 70%)
[4]; AAH 320 g/ha
  G: green foxtail, herbicidal effect rating: 0 (Herbicidal rate of 5% or less (almost no effect))
[5]; [28]
  O: lambsquarters, herbicidal effect: 3 (Herbicidal rate of 40% or more and less than 70%)
[6]
  herbicidal effect on H (barnyard grass), rating 0-5: 4 (Herbicidal rate of 70% or more and less than 90%)
[7]; AAH 320 g/ha
  J: blackgrass, herbicidal effect rating: 0 (Herbicidal rate of 5% or less (almost no effect))
[8]; AAH 320 g/ha
  L: windgrass, herbicidal effect rating: 0 (Herbicidal rate of 5% or less (almost no effect))
[9]; [28]
  J: blackgrass, herbicidal effect: 0 (Herbicidal rate of 5% or less (almost no effect))
[10]; [28]
  P: chickweed, herbicidal effect: 4 (Herbicidal rate of 70% or more and less than 90%)
[11]; [28]
  F: southern crabgrass, herbicidal effect: 3 (Herbicidal rate of 40% or more and less than 70%)
[12]; [28]
  N: redroot pigweed, herbicidal effect: 4 (Herbicidal rate of 70% or more and less than 90%)
[13]; AAH 320 g/ha
  I: wild oat, herbicidal effect rating: 0 (Herbicidal rate of 5% or less (almost no effect))
[14]; AAH 320 g/ha
  M: velvetleaf, herbicidal effect rating: 0 (Herbicidal rate of 5% or less (almost no effect))
[15]; [28]
  M: velvetleaf, herbicidal effect: 2 (Herbicidal rate of 20% or more and less than 40%)
[16]; AAH 320 g/ha
  H: barnyard grass, herbicidal effect rating: 0 (Herbicidal rate of 5% or less (almost no effect))
[17]; AAH 320 g/ha
  K: Italian ryegrass, herbicidal effect rating: 0 (Herbicidal rate of 5% or less (almost no effect))
[18]; AAH 320 g/ha
  F: southern crabgrass, herbicidal effect rating: 0 (Herbicidal rate of 5% or less (almost no effect))
[19]; AAH 320 g/ha
  R: persian speedwell, herbicidal effect rating: 4 (Herbicidal rate of 70% or more and less than 90%)
[20]; [28]
  K: Italian ryegrass, herbicidal effect: 0 (Herbicidal rate of 5% or less (almost no effect))
[21]
  herbicidal effect on E (rice flat sedge), rating 0-5: 3 (Herbicidal rate of 40% or more and less than 70%)
[22]; AAH 320 g/ha
  P: chickweed, herbicidal effect rating: 4 (Herbicidal rate of 70% or more and less than 90%)
[23]
  herbicidal effect on D (Chinese sprangletop), rating 0-5: 0 (Herbicidal rate of 5% or less (almost no effect))
[24]; AAH 320 g/ha
  N: redroot pigweed, herbicidal effect rating: 3 (Herbicidal rate of 40% or more and less than 70%)
[25]; [28]
  R: persian speedwell, herbicidal effect: 4 (Herbicidal rate of 70% or more and less than 90%)
[26]; AAH 320 g/ha
  O: lambsquarters, herbicidal effect rating: 0 (Herbicidal rate of 5% or less (almost no effect))
[27]; [28]
  I: wild oat, herbicidal effect: 3 (Herbicidal rate of 40% or more and less than 70%)

## Cc1nn(C)c(=O)c(-c2c(-c3ccc(OCC#N)cc3)sc3ccc(F)cc23)c1O [2-066]
[1]; [29]
  herbicidal effect on L: windgrass: 0 (Herbicidal rate of 5% or less (almost no effect))
[2]; [29]
  herbicidal effect on G: green foxtail: 4 (Herbicidal rate of 70% or more and less than 90%)
[3]; [29]
  herbicidal effect on H: barnyard grass: 2 (Herbicidal rate of 20% or more and less than 40%)
[4]; 320 g/ha
  herbicidal effect rating, G: green foxtail: 0 (Herbicidal rate of 5% or less (almost no effect))
[5]; [29]
  herbicidal effect on O: lambsquarters: 4 (Herbicidal rate of 70% or more and less than 90%)
[6]
  herbicidal effect on H (barnyard grass), rating 0-5: 4 (Herbicidal rate of 70% or more and less than 90%)
[7]; 320 g/ha
  herbicidal effect rating, J: blackgrass: 0 (Herbicidal rate of 5% or less (almost no effect))
[8]; 320 g/ha
  herbicidal effect rating, L: windgrass: 0 (Herbicidal rate of 5% or less (almost no effect))
[9]; [29]
  herbicidal effect on J: blackgrass: 0 (Herbicidal rate of 5% or less (almost no effect))
[10]; [29]
  herbicidal effect on P: chickweed: 5 (Herbicidal rate of 90% or more (almost completely withered))
[11]; [29]
  herbicidal effect on F: southern crabgrass: 3 (Herbicidal rate of 40% or more and less than 70%)
[12]; [29]
  herbicidal effect on N: redroot pigweed: 5 (Herbicidal rate of 90% or more (almost completely withered))
[13]; 320 g/ha
  herbicidal effect rating, I: wild oat: 0 (Herbicidal rate of 5% or less (almost no effect))
[14]; 320 g/ha
  herbicidal effect rating, M: velvetleaf: 0 (Herbicidal rate of 5% or less (almost no effect))
[15]; [29]
  herbicidal effect on M: velvetleaf: 3 (Herbicidal rate of 40% or more and less than 70%)
[16]; 320 g/ha
  herbicidal effect rating, H: barnyard grass: 0 (Herbicidal rate of 5% or less (almost no effect))
[17]; 320 g/ha
  herbicidal effect rating, K: Italian ryegrass: 0 (Herbicidal rate of 5% or less (almost no effect))
[18]; 320 g/ha
  herbicidal effect rating, F: southern crabgrass: 0 (Herbicidal rate of 5% or less (almost no effect))
[19]; 320 g/ha
  herbicidal effect rating, R: persian speedwell: 4 (Herbicidal rate of 70% or more and less than 90%)
[20]; [29]
  herbicidal effect on K: Italian ryegrass: 1 (Herbicidal rate of 5% or more and less than 20%)
[21]
  herbicidal effect on E (rice flat sedge), rating 0-5: 1 (Herbicidal rate of 5% or more and less than 20%)
[22]; 320 g/ha
  herbicidal effect rating, P: chickweed: 4 (Herbicidal rate of 70% or more and less than 90%)
[23]
  herbicidal effect on D (Chinese sprangletop), rating 0-5: 3 (Herbicidal rate of 40% or more and less than 70%)
[24]; 320 g/ha
  herbicidal effect rating, N: redroot pigweed: 0 (Herbicidal rate of 5% or less (almost no effect))
[25]; [29]
  herbicidal effect on R: persian speedwell: 5 (Herbicidal rate of 90% or more (almost completely withered))
[26]; 320 g/ha
  herbicidal effect rating, O: lambsquarters: 0 (Herbicidal rate of 5% or less (almost no effect))
[27]; [29]
  herbicidal effect on I: wild oat: 0 (Herbicidal rate of 5% or less (almost no effect))
